Ends that are not written are not given here.
Assays:
Assay type in all cases: cell-based
Lactobacillus plantarum = test: Growth-promoting effect on Lactobacillus plantarum in modified MRS medium (particle count); details: Example 5, peptide 0.25 mg/mL, 37° C., 18 hours; for Rate of increase: control = 100%
Text: Nitrogen sources in MRS medium were reduced to find a medium composition that achieves a total bacterial count of about 1.0×10^8 cell/mL to 1.0×10^9 cell/mL after culturing of each of the six bacterial strains Lactobacillus gasseri (FERNM BP-11331), Lactobacillus acidophilus (FERM BP-4981), Lactobacillus amylovorus (FERM BP-11255), Lactobacillus curvatus (NITE P-02033), Lactobacillus plantarum, and Lactobacillus brevis. This composition, named “modified MRS medium”, was used for the evaluation. Here, for the composition of the MRS medium, a composition described in a medium catalog provided by BD (Becton, Dickinson and Company) was used as a reference. The compositions of the MRS medium and the modified MRS medium are as follows. By chemical synthesis, 28 kinds of candidate peptides having the sequences shown below were provided. Each candidate peptide was added to the modified MRS medium at 0.25 mg/mL to provide a medium to be evaluated. The lactic acid bacterium Lactobacillus gasseri was inoculated at 1.0×10^7 cells/mL to the provided medium to be evaluated, and culture was carried out at a temperature of 37° C. for a culture period of 18 hours. The resulting culture was collected, and subjected to measurement of the particle concentration (particles/mL) as a characteristic value that can be used as an index of the bacterial cell growth, using a particle count analyzer (CDA-1000, Sysmex). The rate of increase (%) was calculated relative to a control value obtained using a medium to which no peptide was added, which was taken as 100%. For eight kinds of candidate peptides having the sequences shown below, the growth-promoting effect on a lactic acid bacterium was evaluated in the same manner as in Example 1 except that Lactobacillus plantarum was used instead of Lactobacillus gasseri.

[1] = tested on: Lactobacillus acidophilus (FERM BP-4981); test: Growth-promoting effect on Lactobacillus acidophilus in modified MRS medium (particle count); details: Example 2, peptide 0.25 mg/mL, 37° C., 18 hours; for Rate of increase: control = 100%
Text: Nitrogen sources in MRS medium were reduced to find a medium composition that achieves a total bacterial count of about 1.0×10^8 cell/mL to 1.0×10^9 cell/mL after culturing of each of the six bacterial strains Lactobacillus gasseri (FERNM BP-11331), Lactobacillus acidophilus (FERM BP-4981), Lactobacillus amylovorus (FERM BP-11255), Lactobacillus curvatus (NITE P-02033), Lactobacillus plantarum, and Lactobacillus brevis. This composition, named “modified MRS medium”, was used for the evaluation. Here, for the composition of the MRS medium, a composition described in a medium catalog provided by BD (Becton, Dickinson and Company) was used as a reference. The compositions of the MRS medium and the modified MRS medium are as follows. By chemical synthesis, 28 kinds of candidate peptides having the sequences shown below were provided. Each candidate peptide was added to the modified MRS medium at 0.25 mg/mL to provide a medium to be evaluated. The lactic acid bacterium Lactobacillus gasseri was inoculated at 1.0×10^7 cells/mL to the provided medium to be evaluated, and culture was carried out at a temperature of 37° C. for a culture period of 18 hours. The resulting culture was collected, and subjected to measurement of the particle concentration (particles/mL) as a characteristic value that can be used as an index of the bacterial cell growth, using a particle count analyzer (CDA-1000, Sysmex). The rate of increase (%) was calculated relative to a control value obtained using a medium to which no peptide was added, which was taken as 100%. For eight kinds of candidate peptides having the sequences shown below, the growth-promoting effect on a lactic acid bacterium was evaluated in the same manner as in Example 1 except that Lactobacillus acidophilus was used instead of Lactobacillus gasseri.

[2] = tested on: Lactobacillus amylovorus (FERM BP-11255); test: Growth-promoting effect on Lactobacillus amylovorus in modified MRS medium (particle count); details: Example 3, peptide 0.25 mg/mL, 37° C., 18 hours; for Rate of increase: control = 100%
Text: Nitrogen sources in MRS medium were reduced to find a medium composition that achieves a total bacterial count of about 1.0×10^8 cell/mL to 1.0×10^9 cell/mL after culturing of each of the six bacterial strains Lactobacillus gasseri (FERNM BP-11331), Lactobacillus acidophilus (FERM BP-4981), Lactobacillus amylovorus (FERM BP-11255), Lactobacillus curvatus (NITE P-02033), Lactobacillus plantarum, and Lactobacillus brevis. This composition, named “modified MRS medium”, was used for the evaluation. Here, for the composition of the MRS medium, a composition described in a medium catalog provided by BD (Becton, Dickinson and Company) was used as a reference. The compositions of the MRS medium and the modified MRS medium are as follows. By chemical synthesis, 28 kinds of candidate peptides having the sequences shown below were provided. Each candidate peptide was added to the modified MRS medium at 0.25 mg/mL to provide a medium to be evaluated. The lactic acid bacterium Lactobacillus gasseri was inoculated at 1.0×10^7 cells/mL to the provided medium to be evaluated, and culture was carried out at a temperature of 37° C. for a culture period of 18 hours. The resulting culture was collected, and subjected to measurement of the particle concentration (particles/mL) as a characteristic value that can be used as an index of the bacterial cell growth, using a particle count analyzer (CDA-1000, Sysmex). The rate of increase (%) was calculated relative to a control value obtained using a medium to which no peptide was added, which was taken as 100%. For eight kinds of candidate peptides having the sequences shown below, the growth-promoting effect on a lactic acid bacterium was evaluated in the same manner as in Example 1 except that Lactobacillus amylovorus was used instead of Lactobacillus gasseri.

Substance	Particle concentration (Lactobacillus plantarum)	Rate of increase (Lactobacillus plantarum)	Particle concentration [1]	Rate of increase [1]	Particle concentration [2]	Rate of increase [2]
AGPQTF	3.36e+09 mL⁻¹	108%	1.02e+08 mL⁻¹	105%	1.93e+08 mL⁻¹	118%
APKPDYPIA (listed as Saccharomyces cerevisiae) [Ala-Pro-Lys-Pro-Asp-Tyr-Pro-Ile-Ala]	3.45e+09 mL⁻¹	111%	9.73e+07 mL⁻¹	100%	1.83e+08 mL⁻¹	112%
Leu-Phe [LF]	3.32e+09 mL⁻¹	107%	8.75e+07 mL⁻¹	121%	2.08e+08 mL⁻¹	109%
Leu-Pro-Trp-Gly (LPWG; listed as Saccharomyces cerevisiae)	3.09e+09 mL⁻¹	100%	1.03e+08 mL⁻¹	113%	2.13e+08 mL⁻¹	111%
Pro-Ser-Val-Phe (PSVF; listed as Saccharomyces cerevisiae)	3.17e+09 mL⁻¹	102%	1e+08 mL⁻¹	103%	1.92e+08 mL⁻¹	118%
Pro-Val-Phe [PVF]	2.92e+09 mL⁻¹	94%	1.01e+08 mL⁻¹	111%	2.07e+08 mL⁻¹	108%
Pro-Val-Tyr [PVY]	3.23e+09 mL⁻¹	104%	1.1e+08 mL⁻¹	113%	1.98e+08 mL⁻¹	121%
Val-Pro-Ala-Phe (VPAF; listed as Saccharomyces cerevisiae)	3.27e+09 mL⁻¹	105%	1.04e+08 mL⁻¹	113%	2.07e+08 mL⁻¹	108%

Reference: patent US20230151057A1, “LACTIC ACID BACTERIA GROWTH PROMOTER” (Asahi Group Holdings, Ltd., priority 2020, published 2023)
